Test results as given in the supplement of paper PMC6045584.

Experiments:
Experiment in all cases: area under dose-response curve of surviving fraction (unscaled, Aref=0) (surviving fraction x log10(nM)); higher = more resistant
Conditions in all cases: exposure time: 5 days; dose range 0.5-1000 nM
SORAFENIB = compound: CNC(=O)c1cc(Oc2ccc(NC(=O)Nc3ccc(Cl)c(C(F)(F)F)c3)cc2)ccn1 [SORAFENIB]
In short: (§1)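 Tumour cell lines in 384-well plates were exposed to eight inhibitor concentrations, from 0.5 to 1000 nM, for five days, and viability was read by CellTiter-Glo luminescence in three screens per line. Signals were normalised to DMSO-only wells, and 3-parameter logistic regression in the drc R package fitted dose-response survival curves to the surviving fractions. Area under the curve is given as the unscaled activity area. That area is taken over log10 dose with Aref = 0.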

FORETINIB = compound: COc1cc2c(Oc3ccc(NC(=O)C4(C(=O)Nc5ccc(F)cc5)CC4)cc3F)ccnc2cc1OCCCN1CCOCC1 [FORETINIB]
In short: as §1

[1] = compound: C[C@@H](Oc1cc(-c2cnn(C3CCNCC3)c2)cnc1N)c1c(Cl)ccc(F)c1Cl
In short: as §1

DASATINIB = compound: Cc1nc(Nc2ncc(C(=O)Nc3c(C)cccc3Cl)s2)cc(N2CCN(CCO)CC2)n1 [DASATINIB]
In short: as §1

TEMOZOLOMIDE = compound: Cn1nnc2c(C(N)=O)ncn2c1=O [TEMOZOLOMIDE]
In short: as §1

MLN-4924 = compound: NS(=O)(=O)OC[C@@H]1C[C@@H](n2ccc3c(N[C@H]4CCc5ccccc54)ncnc32)C[C@@H]1O [MLN-4924]
In short: as §1

OLAPARIB = compound: O=C(c1cc(Cc2n[nH]c(=O)c3ccccc23)ccc1F)N1CCN(C(=O)C2CC2)CC1 [OLAPARIB]
In short: as §1

XAV-939 = compound: Oc1nc(-c2ccc(C(F)(F)F)cc2)nc2c1CSCC2 [XAV-939]
In short: as §1

[2] = compound: COc1cc2ncnc(Nc3ccc(F)c(Cl)c3)c2cc1NC(=O)/C=C/CN1CCCCC1
In short: as §1

CRIZOTINIB = compound: C[C@@H](Oc1cc(-c2cnn(C3CCNCC3)c2)cnc1N)c1c(Cl)ccc(F)c1Cl [CRIZOTINIB]
In short: as §1

Test System	area under dose-response curve (SORAFENIB)	area under dose-response curve (FORETINIB)	area under dose-response curve [1]	area under dose-response curve (DASATINIB)	area under dose-response curve (TEMOZOLOMIDE)	area under dose-response curve (MLN-4924)	area under dose-response curve (OLAPARIB)	area under dose-response curve (XAV-939)	area under dose-response curve [2]	area under dose-response curve (CRIZOTINIB)
RDES SOFT TISSUE	3.76	2.73	2.6	2.92	3.9	2.44	3.41	4		
SAOS2 BONE		3.04	2.88	1.69	3.9	1.97	2.98	3.94	3.15	
SCC003 HEADNECK	3.6	3.21	3.05	2.38	3.57	3.02	3.28		2.29	
SCC36 HEADNECK	3.74	3.13	2.51	1.53	3.63	2.11	2.84		1.81	
SCC47 HEADNECK	3.24		3.1	2.21	3.61	2.46	3.46	3.53	2.3	
SCC90 HEADNECK			3.19	2.21	3.49	1.64	3.24	3.4	1.84	3.27
SG28 HEADNECK	4.1							3.21	1.87	
SG31 HEADNECK	3.79		2.66	1.99	3.5	2.42	3.18	3.04	2.06	
SG32 HEADNECK	4.91	2.95	2.92	1.29	4.29	2.59		3.64	2.87	
SIHA CERVIX	3.73	3.11	3.14	2.35	3.34	2.59		3.55		
SJSA1 BONE	3.31	5.45	3.21	3.23	3.28			3.64	3.54	
SKBR3 BREAST	3.35		2.88	2.96	3.54	2.05	3.09		1.36	
SUM44 BREAST	3.43	3.91	3.1	3.11	4.14		3.02	3.52	3.24	
SUM149.B1*.S BREAST	3.92		3.1	2.05	3.73	2.42		3.73	3.06	3.8
SUM159 BREAST	3.15		3.42	2.84	3.44	3.12	3.45		3.52	3.63
VP229 BREAST	3.66		3.2	1.98	3.86	2.74		4.36	1.74	
ZR751 BREAST	3.69		2.77	2.99	3.24		3.57	2.68	2.6	
